The text below walks through data of patent US12157730B2, “Heteroaryl derivative, method for producing same, and pharmaceutical composition comprising same as effective component” (VORONOI INC., priority 2019, dated 2024).

This experiment addresses T1, Ba/F3 cell EGFR Exon20 ins NPH (Homo sapiens, UniProt P00533, INS773NPH).
T1 construct: expressed in transfected cells; host or cells: Ba/F3
Put plainly: Ba/F3 cell proliferation suppression, EGFR Exon20 ins NPH. Particulars: GI50 class; Ba/F3 cell line with NPH inserted at Exon20 of EGFR; 72 hours. The class given is cell-based. In a few lines:
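Seed 3000–5000 cells/well; after 24 h add compound (12 conc., 0.3 nM–50 um final); incubate 72 h; add CellTiter-Glo, 10 min room temperature; read luminescence; GI50 from % growth vs control, triplicate.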

On to `C=CC(=O)Nc1cc(Nc2cc(N3OCC[C@@H]3c3cc(F)cc(F)c3)ncn2)c(OC)cc1N1CCC(N2C[C@H]3CC[C@@H](C2)N3C2CC2)CC1` [Example 115, N-(2-(4-((1R,5S)-8-cyclopropyl-3,8-diazabicyclo[3.2.1]octan-3-yl)piperidine-1-yl)-5-((6-((R)-3-(3,5-difluorophenyl)isoxazolidine-2-yl)pyrimidine-4-yl)amino)-4-methoxyphenyl) acrylamide], for which the “Ba/F3 (NPH) Activity” value was “A (GI50 < 50 nM)”. Take `C=CC(=O)Nc1cc(Nc2cc(N3OCC[C@@H]3c3ccc(F)cc3F)ncn2)c(OC)cc1N1CCN(C2COC2)CC1` [compound 383, N-(5-((6-((R)-3-(2,4-difluorophenyl)isoxazolidine-2-yl)pyrimidine-4-yl)amino)-4-methoxy-2-(4-(oxetane-3-yl)piperazine-1-yl)phenyl)acrylamide]: the “Ba/F3 (NPH) Activity” value is given as “A (GI50 < 50 nM)”.

For `C=CC(=O)Nc1cc(Nc2cc(N3OCC[C@@H]3c3cccc(Cl)c3C)ncn2)c(OC)cc1N1CCC(N2CCN(CCC)CC2)CC1` [compound 582, N-(5-((6-((R)-3-(3-chloro-2-methylphenyl)isoxazolidine-2-yl)pyrimidine-4-yl)amino)-4-methoxy-2-(4-(4-propylpiperazine-1-yl)piperidine-1-yl)phenyl) acrylamide], the “Ba/F3 (NPH) Activity” value is listed as “A (GI50 < 50 nM)”.

As for `C=CC(=O)Nc1cc(Nc2cc(N3OCC[C@@H]3c3ccc(F)c(Cl)c3)ncn2)c(OC)cc1N1CC[C@@H](N(C)C)C1` [compound 756, N-(5-((6-((R)-3-(3-chloro-4-fluorophenyl)isoxazolidine-2-yl)pyrimidine-4-yl)amino)-2-((R)-3-(dimethylamino)pyrolidine-1-yl)-4-methoxyphenyl) acrylamide], the “Ba/F3 (NPH) Activity” value was “A (GI50 < 50 nM)”. With `C=CC(=O)Nc1cc(Nc2cc(N3OCC[C@@H]3c3ccc(F)cc3F)ncn2)c(OC)cc1N1CCC(N2CCN(C(C)C)CC2)CC1` [compound 428, N-(5-((6-((R)-3-(2,4-difluorophenyl)isoxazolidine-2-yl)pyrimidine-4-yl)amino)-2-(4-(4-isopropylpiperazine-1-yl)piperidine-1-yl)-4-methoxyphenyl) acrylamide], the “Ba/F3 (NPH) Activity” value is given as “A (GI50 < 50 nM)”.

Take `C=CC(=O)Nc1cc(Nc2cc(N3OCC[C@@H]3c3cc(F)ccc3F)ncn2)c(OC)cc1N1CCOCC1` [compound 825, N-(5-((6-((R)-3-(2,5-difluorophenyl)isoxazolidine-2-yl)pyrimidine-4-yl)amino)-4-methoxy-2-morpholinophenyl) acrylamide]: the “Ba/F3 (NPH) Activity” value was “A (GI50 < 50 nM)”. The value for `C=CC(=O)Nc1cc(Nc2cc(N3OCC[C@@H]3c3ccc4ccccc4c3)ncn2)c(OC)cc1N1CCC(N2C[C@@H]3C[C@H]2CO3)CC1` [compound 512, N-(2-(4-((1S,4S)-2-oxa-5-azabicyclo[2.2.1]heptane-5-yl)piperidine-1-yl)-4-methoxy-5-((6-((R)-3-(naphthalene-2-yl)isoxazolidine-2-yl)pyrimidine-4-yl)amino)phenyl)acrylamide] was “A (GI50 < 50 nM)”. The result for `C=CC(=O)Nc1cc(Nc2cc(N3OCC[C@@H]3c3ccc(Cl)c(Cl)c3)ncn2)c(OC)cc1N1CCC(N2CCN(C3CC3)CC2)CC1` [compound 932, N-(2-(4-(4-cyclopropylpiperazine-1-yl)piperidine-1-yl)-5-((6-((R)-3-(3,4-dichlorophenyl)isoxazolidine-2-yl)pyrimidine-4-yl)amino)-4-methoxyphenyl) acrylamide] reads “B (50 nM ≤ GI50 < 500 nM)”. As for `C=CC(=O)Nc1cc(Nc2cc(N3OCC[C@@H]3c3cccc(Cl)c3)ncn2)c(OC)cc1N1CCN(C2COC2)CC1` [compound 470, N-(5-((6-((R)-3-(3-chlorophenyl)isoxazolidine-2-yl)pyrimidine-4-yl)amino)-4-methoxy-2-(4-(oxetane-3-yl)piperazine-1-yl)phenyl) acrylamide], the “Ba/F3 (NPH) Activity” value is recorded as “A (GI50 < 50 nM)”. The result for `C=CC(=O)Nc1cc(Nc2cc(N3OCC[C@@H]3c3cccc(F)c3Cl)ncn2)c(OC)cc1N1CCC(N(C)C)CC1` [compound 553, N-(5-((6-((R)-3-(2-chloro-3-fluorophenyl)isoxazolidine-2-yl)pyrimidine-4-yl)amino)-2-(4-(dimethylamino)piperidine-1-yl)-4-methoxyphenyl) acrylamide] reads “A (GI50 < 50 nM)”. The result for `C=CC(=O)Nc1cc(Nc2cc(N3OCC[C@@H]3Cc3ccc(C(F)(F)F)cc3)ncn2)c(OC)cc1N1CCC(N2C[C@H]3C[C@@H]2CO3)CC1` [compound 1051, N-(2-(4-((1R,4R)-2-oxa-5-azabicyclo [2.2.1]heptane-5-yl)piperidine-1-yl)-4-methoxy-5-((6-((S)-3-(4-(trifluoromethyl)benzyl)isoxazolidine-2-yl)pyrimidine-4-yl)amino)phenyl)acrylamide] reads “A (GI50 < 50 nM)”; that for `C=CC(=O)Nc1cc(Nc2cc(N3OCC[C@@H]3c3cccc(C)c3F)ncn2)c(OC)cc1N1CCC(N2C[C@H](C)N(C3CC3)C[C@@H]2C)CC1` [Example 123, N-(2-(4-((2S,5S)-4-cyclopropyl-2,5-dimethylpiperazine-1-yl)piperidine-1-yl)-5-((6-((R)-3-(2-fluoro-3-methylphenyl)isoxazolidine-2-yl)pyrimidine-4-yl)amino)-4-methoxyphenyl) acrylamide], “A (GI50 < 50 nM)”; that for `C=CC(=O)Nc1cc(Nc2cc(N3OCC[C@@H]3c3cc(F)cc(F)c3)ncn2)c(OC)cc1N1CCO[C@@H](C)C1` [compound 337, N-(5-((6-((R)-3-(3,5-difluorophenyl)isoxazolidine-2-yl)pyrimidine-4-yl)amino)-4-methoxy-2-((S)-2-methylmorpholino)phenyl)acrylamide], “B (50 nM ≤ GI50 < 500 nM)”. The result for `C=CC(=O)Nc1cc(Nc2cc(N3OCC[C@@H]3c3ccccc3)ncn2)c(OC)cc1N1CCC(N2CCN(CC3CC3)CC2)CC1` [Example 91, N-(2-(4-(4-(cyclopropylmethyl)piperazine-1-yl)piperidine-1-yl)-4-methoxy-5-((6-((R)-3-phenylisoxazolidine-2-yl)pyrimidine-4-yl)amino)phenyl)acrylamide] reads “A (GI50 < 50 nM)”.

As to `C=CC(=O)Nc1cc(Nc2cc(N3OCC[C@@H]3c3ccc(F)cc3F)ncn2)c(OC)cc1N1CCN(C2CCCC2)CC1` [compound 348, N-(2-(4-cyclopentylpiperazine-1-yl)-5-((6-((R)-3-(2,4-difluorophenyl)isoxazolidine-2-yl)pyrimidine-4-yl)amino)-4-methoxyphenyl) acrylamide], the “Ba/F3 (NPH) Activity” value is on record as “A (GI50 < 50 nM)”. The result for `C=CC(=O)Nc1cc(Nc2cc(N3OCC[C@@H]3c3cccc(F)c3F)ncn2)c(OC)cc1N1CCN(C2COC2)CC1` [compound 923, N-(5-((6-((R)-3-(2,3-difluorophenyl)isoxazolidine-2-yl)pyrimidine-4-yl)amino)-4-methoxy-2-(4-(oxetane-3-yl)piperazine-1-yl)phenyl) acrylamide] reads “A (GI50 < 50 nM)”; that for `C=CC(=O)Nc1cc(Nc2cc(N3OCC[C@@H]3c3cccc(C(F)(F)F)c3)ncn2)c(OC)cc1N1CCN(C)CC1` [compound 450, N-(4-methoxy-2-(4-methylpiperazine-1-yl)-5-((6-((R)-3-(3-(trifluoromethyl)phenyl)isoxazolidine-2-yl)pyrimidine-4-yl)amino)phenyl)acrylamide], “A (GI50 < 50 nM)”. As to `C=CC(=O)Nc1cc(Nc2cc(N3OCC[C@@H]3c3cccc(Cl)c3C)ncn2)c(OC)cc1N1CCC(N2CCN(C3CC3)[C@@H](C)C2)CC1` [Example 153, N-(5-((6-((R)-3-(3-chloro-2-methylphenyl)isoxazolidine-2-yl)pyrimidine-4-yl)amino)-2-(4-((S)-4-cyclopropyl-3-methylpiperazine-1-yl)piperidine-1-yl)-4-methoxyphenyl) acrylamide], the “Ba/F3 (NPH) Activity” value is reported as “A (GI50 < 50 nM)”. Consider `C=CC(=O)Nc1cc(Nc2cc(N3OCC[C@@H]3Cc3cccc(Cl)c3F)ncn2)c(OC)cc1N1CCC(N2C[C@@H]3C[C@H]2CO3)CC1` [compound 1022, N-(2-(4-((1S,4S)-2-oxa-5-azabicyclo [2.2.1]heptane-5-yl)piperidine-1-yl)-5-((6-((S)-3-(3-chloro-2-fluorobenzyl)isoxazolidine-2-yl)pyrimidine-4-yl)amino)-4-methoxyphenyl) acrylamide], for which the “Ba/F3 (NPH) Activity” value is recorded as “A (GI50 < 50 nM)”. `C=CC(=O)Nc1cc(Nc2cc(N3OCC[C@@H]3c3ccc(C)nc3)ncn2)c(OC)cc1N1CCN(C)CC1` [Example 44, N-(4-methoxy-2-(4-methylpiperazine-1-yl)-5-((6-((R)-3-(6-methylpyridine-3-yl)isoxazolidine-2-yl)pyrimidine-4-yl)amino)phenyl) acrylamide]: the “Ba/F3 (NPH) Activity” value is “B (50 nM ≤ GI50 < 500 nM)”. For `C=CC(=O)Nc1cc(Nc2cc(N3OCC[C@@H]3Cc3cccc(Cl)c3Cl)ncn2)c(OC)cc1N1CCC(N2C[C@H]3C[C@@H]2CO3)CC1` [compound 1014, N-(2-(4-((1R,4R)-2-oxa-5-azabicyclo [2.2.1]heptane-5-yl)piperidine-1-yl)-5-((6-((S)-3-(2,3-dichlorobenzyl)isoxazolidine-2-yl)pyrimidine-4-yl)amino)-4-methoxyphenyl) acrylamide], the “Ba/F3 (NPH) Activity” value is “A (GI50 < 50 nM)”. The value for `C=CC(=O)Nc1cc(Nc2cc(N3OCC[C@@H]3c3cccc(F)c3F)ncn2)c(OC)cc1N1CCC(N2CC[C@H](N(C)C)C2)CC1` [compound 340, N-(5-((6-((R)-3-(2,3-difluorophenyl)isoxazolidine-2-yl)pyrimidine-4-yl)amino)-2-(4-((S)-3-(dimethylamino)pyrolidine-1-yl)piperidine-1-yl)-4-methoxyphenyl) acrylamide] was “A (GI50 < 50 nM)”.
